# According to the supplement of paper PMC10307832:
# Compound: CC(C)CCN1c2nc(Nc3cc(F)c(O)c(F)c3)ncc2N(C)C(=O)C1C [BI-D1870] + Cc1nc(NC(=O)N2CCC[C@H]2C(N)=O)sc1-c1ccnc(C(C)(C)C(F)(F)F)c1 [Alpelisib] (partner 2 µM)
# Assay: relative viability (nuclei count vs DMSO), 5 days (fraction); higher = more cells survive
# Details: first compound 4 µM
# How it was run: (§1)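 Lung cancer cell lines were pin-tool dosed in 1536-well plates on the day after seeding, with either a lone drug or a fixed anchor-drug dose plus five library-drug doses (not always all listed) in √10 steps. Nuclei were counted on 4× images after 5 days. Relative viability is the ratio of treated-well to vehicle-well nuclei counts, with each value a median of duplicate plates.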
row,Cell Line,relative viability
1,NCI-H650,0.722
2,PC-3 [JPC-3],1

# Compound: O=c1ncccn1[C@@H]1O[C@H](CO)[C@@H](O)[C@H]1O [Zebularine] + CCNC(=O)c1noc(-c2cc(C(C)C)c(O)cc2O)c1-c1ccc(CN2CCOCC2)cc1 [Luminespib] (partner 0.01 µM)
# Assay: as above
# Details: first compound 1 µM
# How it was run: as §1
row,Cell Line,relative viability
1,NCI-H2228,0.198
2,NCI-H1792,0.667
3,NCI-H1355,0.93
4,NCI-H3122,0.11
5,NCI-H1437,1.22
6,NCI-H1755,0.481
7,NCI-H2023,0.942
8,HCC-15,0.297
9,NCI-H1793,0.196
10,PC-14,0.107
11,EKVX,0.863
12,LC-2-ad,1.02
13,NCI-H1944,0.837
14,NCI-H1975,0.249
15,RERF-LC-KJ,1.29
16,NCI-H358,0.355
17,NCI-H650,0.776
18,PC-3 [JPC-3],0.79

# Same assay, conditions: first compound 3.162 µM
row,Cell Line,relative viability
1,NCI-H2228,0.147
2,NCI-H1792,0.4
3,NCI-H1355,0.654
4,NCI-H3122,0.0829
5,NCI-H1437,1.23
6,NCI-H1755,0.426
7,NCI-H2023,1.04
8,HCC-15,0.337
9,NCI-H1793,0.197
10,PC-14,0.134
11,EKVX,0.847
12,LC-2-ad,1.01
13,NCI-H1944,0.707
14,NCI-H1975,0.196
15,RERF-LC-KJ,1.17
16,NCI-H358,0.462
17,NCI-H650,0.742
18,PC-3 [JPC-3],0.667

# Same assay, conditions: first compound 10 µM
row,Cell Line,relative viability
1,NCI-H2228,0.175
2,NCI-H1792,0.286
3,NCI-H1355,0.595
4,NCI-H1437,0.956
5,NCI-H1755,0.39
6,NCI-H2023,0.301
7,HCC-15,0.211
8,PC-14,0.158
9,EKVX,0.867
10,LC-2-ad,0.699
11,NCI-H1944,0.718
12,NCI-H1975,0.241
13,RERF-LC-KJ,0.827
14,NCI-H358,0.251
15,NCI-H650,0.595
16,PC-3 [JPC-3],0.553

# Same assay, conditions: first compound 31.62 µM
row,Cell Line,relative viability
1,NCI-H2228,0.226
2,NCI-H1792,0.266
3,NCI-H1355,0.452
4,NCI-H3122,0.111
5,NCI-H1437,1.16
6,NCI-H1755,0.522
7,NCI-H2023,0.448
8,HCC-15,0.34
9,NCI-H1793,0.203
10,PC-14,0.131
11,EKVX,0.807
12,LC-2-ad,0.73
13,NCI-H1944,0.711
14,NCI-H1975,0.199
15,RERF-LC-KJ,1.54
16,NCI-H358,0.269
17,NCI-H650,0.355
18,PC-3 [JPC-3],0.466

# Same assay, conditions: first compound 100 µM
row,Cell Line,relative viability
1,NCI-H2228,0.153
2,NCI-H1792,0.254
3,NCI-H1355,0.29
4,NCI-H3122,0.0803
5,NCI-H1437,0.59
6,NCI-H1755,0.44
7,NCI-H2023,0.174
8,HCC-15,0.216
9,NCI-H1793,0.142
10,PC-14,0.157
11,EKVX,0.653
12,LC-2-ad,0.541
13,NCI-H1944,0.533
14,NCI-H1975,0.14
15,RERF-LC-KJ,1.53
16,NCI-H358,0.184
